Experimental data: patent US20260234173A1, “STRUCTURED MOLECULAR VECTORS FOR ANTI-INFLAMMATORY COMPOUNDS AND USES THEREOF” (Universite Claude Bernard Lyon 1, priority 2019, published 2026)

Tests used:
[1] = tested on: epileptic rats (post Pilo-SE); assay: Morris water maze (MWM) spatial learning in epileptic rats; assay type: in vivo, rat; conditions: epileptic rats injected during the first week post-SE, tested 5 weeks post-SE, versus saline
Protocol: All injected solutions were prepared in sterile saline (0.9% w/v). At weaning (postnatal day 20 (P20)), Sprague-Dawley male rat pups were first injected i.p. with lithium chloride (127 mg/Kg; Sigma-Aldrich), to decrease the dose of pilocarpine needed to trigger Status Epilepticus (SE). Scopolamine methylnitrate (1 mg/Kg; Sigma-Aldrich) was injected s.c. 18 h later, to alleviate peripheral cholinergic adverse side effects. Pilocarpine hydrochloride (25 mg/Kg; Sigma-Aldrich) was injected i.p. 30 min later, to induce SE. After 30 min of continuous behavioral SE, diazepam (Valium®, Roche) was injected i.p. at 10 mg/Kg, to promote survival and initiate cessation of behavioral seizures, that completely stopped after a second s.c. injection of diazepam, given 90 min later at the dose of 5 mg/Kg. The rats were placed on a heated pad, under continuous observation, until they recovered from sedation. Following recovery, the rats were returned to the nursing mother until P23. Control rats only received saline injections. […]
Spatial learning ability was measured at 5 weeks post-SE by the Morris water maze (MWM). […]
The statistical analyses were performed using SigmaPlot software version 12. […] For MWM test, data were analyzed by two-way repeated measures ANOVA followed by Fisher LSD post hoc tests to compare differences between groups at several time points.

[2] = tested on: LPS-induced neuroinflammation (hippocampus and neocortex); assay: LPS-induced neuroinflammation in vivo in rats (RT-qPCR, Neuroinflammation Index); design: species or system rat; conditions: 6 h post-LPS
[3] = tested on: fully amygdala-kindled rats; assay: Seizure severity in fully amygdala-kindled rats (Racine's scale); assay type: in vivo, rat
Protocol: All animal procedures were in compliance with the guidelines of the European Union (directive 2010-63), regulating animal experimentation, and have been approved by the ethical committee of the Claude Bernard Lyon 1 University. Male Sprague-Dawley rats (Envigo, France) were used in these experiments. They were housed in a temperature-controlled room (23±1° C.) under diurnal lighting conditions (lights on from 6 a.m to 6 p.m). Rats arrived 15 days prior to the beginning of the experiments. They were maintained in groups of 2 in 800 cm2 plastic cages comprising minimal environmental enrichment (nesting cardboard material, wooden gnowing sticks), and had free access to food and water.
For surgical implantation of kindling electrodes, rats weighing 220-240 g were anesthetized using isoflurane (5% induction; 2% maintenance) and treated with the analgesic drug buprenorphine (0.050 mg/kg, i.m.). Their heads were positioned in a stereotaxic apparatus with the incisor bar set at −3.3 mm. Burr holes were drilled for the placement of three stainless steel jewelers' screws in the left parietal, right frontal and occipital bones, and over the site of implantation of the electrode used for amygdala kindling. This stimulation and recording electrode consisted of a teflon-isolated bipolar stainless-steel electrode aimed at the right basolateral amygdala (stereotaxic coordinates relative to Bregma: anterior-posterior, −2.8 mm; lateral, +4.8 mm; dorso-ventral, −8.5 mm). The screws placed above the parietal cortex and the frontal cortex served as recording electrodes, and the placed above the cerebellum served as grounding. Bipolar, recording and grounding electrodes were connected to a plug anchored to the skull with dental acrylic cement.
Electrical stimulation via the kindling electrode was initiated after a recovery period of 1 week after surgery, and was performed at the same time of the day (between 9:00 and 11:00 A.M. and then between 4:00 and 6:00 P.M.) to avoid intraday variance between animals. Constant current stimulations (500 μA, biphasic square-wave pulses, 50 pulses/s for 2 s) were delivered twice daily until at least 5 fully kindled seizures (secondarily generalized stage 5 seizures) were elicited. Seizure severity was classified behaviorally according to Racine's scale: stage 1, immobility, slight facial clonus (eye closure, twitching of vibrissae, sniffing); stage 2, head nodding associated with more severe facial clonus; stage 3, clonus of one forelimb; stage 4, rearing, often accompanied by bilateral forelimb clonus; stage 5, tonic-clonic seizure accompanied by loss of balance and falling.
To evaluate the effect of SYN-PN on seizure severity, SYN-PN was prepared in saline and injected intraperitoneally at 5, 10 or 50 mg/kg, 45 min prior to electrical stimulation in fully kindled rats. Briefly, the day after the last stage 5 seizure, on day 1, the rats received a first dose of SYN-PN (5 mg/kg) and were stimulated 45 minutes later. At D2 and D5, they were stimulated without SYN-PN injection to evaluate the residual effect of the 5 mg/kg dose. On D6, they received a second dose of SYN-PN (10 mg/kg) and were stimulated 45 minutes later. They were then simulated at D7 and D8 to evaluate the residual effect of the 10 mg/kg dose. On D9, rats received a third dose of SYN-PN (50 mg/kg) and were stimulated 45 minutes later. They were then simulated at D10 and D11 to evaluate the residual effect of the 50 mg/kg dose. Finally, they received 1) a daily dose of SYN-PN at 5 mg/kg from D12 to D15 and were stimulated at D16; 2) a daily dose of SYN-PN at 10 mg/kg from D19 to D22 and were stimulated at D23; and 3) a daily dose of SYN-PN at 20 mg/kg from D26 to D29 and were stimulated at D30. The treatments were then stopped. However, to assess the persistence of the effects of this series of treatments, rats continued to be stimulated at 7, 15, 42 and 56 days after the last treatment at 20 mg/kg.

## CCC=CCC=CCC=CCC=CCC=CCC=CCCC(=O)NCCP(=O)(O)O [synaptamide phosphonate]
[1]
  spatial learning in MWM (latency to find the platform): increased average latency to find the platform
[2]; 2 mg/Kg synaptamide equivalent i.p. one minute after LPS 1 mg/Kg, 21-day-old rats
  LPS-mediated induction of transcripts encoding neuroinflammatory markers: partially prevent
[2]; 2 mg/Kg synaptamide equivalent i.p. one minute after LPS
  reduction of the Neuroinflammatory Index measured both in the hippocampus and the neocortex: ~ 70%
[3]; all rats (n=15)
  rats with absence of seizures 15 days after stopping treatment: 7/15
[3]; all rats (n=15), D1, 5 mg/kg i.p. 45 min before stimulation
  decrease of mean seizure severity: 19.0±7.9%
[3]; all rats (n=15), D2, day after 5 mg/kg, no injection
  seizure severity compared to D0: −23.1±8.1%
[3]; all rats (n=15), D5, no injection
  effect of 5 mg/kg on seizure severity at D5: lost
[3]; all rats (n=15), D6, 10 mg/kg i.p. 45 minutes before stimulation
  seizure severity compared to D0: not significantly different from that at D0
[3]; all rats (n=15), D16, after daily 5 mg/kg from D12
  seizure severity compared to D0: −42.0±9.2%
[3]; all rats (n=15), the next day and the day after 10 mg/kg (D7-D8), at the most
  seizure severity compared to D0: −39.4±11.1%
[3]; any dose
  delay of the maximum effect on seizure severity after administration: 24 to 48 h
[3]; decrease in seizure severity first observed at 5 mg/kg i.p.
  rats responding to 5 mg/kg: 8/15
[3]; decrease in seizure severity first observed at 10 mg/kg i.p.
  rats responding to 10 mg/kg: 3/15
[3]; decrease in seizure severity first observed at 50 mg/kg i.p.
  rats responding to 50 mg/kg: 4/15
[3]; rats responding to 5 mg/kg (n=8), D16 after daily 5 mg/kg
  seizure severity compared to D0: −87.0±13.0%
[3]; rats responding to 5 mg/kg (n=8), same day of administration
  seizure severity compared to D0: −36.4±11.7%
[3]; rats responding to 5 mg/kg, 4 daily doses each
  average severity of seizures on increasing the daily dose from 5 to 10, then to 20 mg/kg: did not change the average severity of seizures
[3]; rats responding to 5 mg/kg, D16 after daily 5 mg/kg
  rats remaining at stage 0: 7/8
[3]; rats responding to 5 mg/kg, after 4 daily doses of 5 mg/kg
  rats free from seizures: 7/8
[3]; rats responding to 5 mg/kg, after 4 daily doses of 10 mg/kg
  rats free from seizures: 4/8
[3]; rats responding to 10 mg/kg (n=3)
  decrease of seizure severity compared to D0: not significantly different from DO
[3]; rats responding to 10 mg/kg (n=3), after 5 mg/kg for 4 days
  severity reduction at D16: maintained
[3]; rats responding to 50 mg/kg (n=4)
  decrease of seizure severity compared to D0: too variable to observe a significant effect
[3]; rats responding to 50 mg/kg (n=4), after 5 mg/kg for 4 days
  seizure reduction at D16: only transient and lost at D16
[3]; rats responding to 50 mg/kg, after high doses (20 mg/kg)
  duration of the protective effect against seizures after stopping treatment: up to 15 days
[3]; substantial population of rats
  persistence of seizure freedom after stopping treatment: free of seizures, even after almost two months of stopping treatment
